Measured values published in patent US20070088021A1, “4-haloisoquinoline derivative and drug containing the same” (priority 2005, published 2007).
Where a name gives a salt, the structure may show the parent alone.

What was measured:
[1] = target: T1, Rho kinase; assay: Rho-kinase assay (measurement of kinase inhibitory activity); format: biochemical; conditions: method of Patent Document 1
T1 construct: IC50 for Rho kinase
Experimental: A Rho-kinase assay was performed according to the method described in Patent Document 1, and the 50% inhibitory concentration (hereinafter referred to as the “IC50 value”) for Rho kinase was calculated.

[2] = target: Rho kinase; conditions: order of magnitude stated in background; cited from earlier work

| Structure (SMILES) | IC50 [1] [nM] | 50% inhibitory concentration (IC50) for Rho kinase [2] |
| --- | --- | --- |
| Cc1cncc2cccc(S(=O)(=O)N3CCCNC[C@@H]3C)c12.Cl [(S)-(+)-hexahydro-2-methyl-1-(4-methyl-5-isoquinolinesulfonyl)-1H-1,4-diazepine hydrochloride] | – | 1/100 |
| Cc1cncc2cccc(S(=O)(=O)N3CCCNC[C@@H]3C)c12 [Reference Compound B, (S)-(+)-hexahydro-2-methyl-1-(4-methyl-5-isoquinolinesulfonyl)-1H-1,4-diazepine hydrochloride, reference compound] | 12 | – |
| C[C@H]1CNCCCN1S(=O)(=O)c1cccc2cncc(F)c12 [Dihydrochloride of Compound (1) X = F] | 85 | – |

Now from value to molecule, other results behind:

| IC50 [1] [nM] | Structure (SMILES) | 50% inhibitory concentration (IC50) for Rho kinase [2] |
| --- | --- | --- |
| 25.8 | CC1CNCCCN1S(=O)(=O)c1cccc2cncc(Cl)c12 (centres unmarked) [Dihydrochloride of Compound (1) X = Cl] | – |
| 5.8 | C[C@H]1CNCCCN1S(=O)(=O)c1cccc2cncc(Br)c12 [Dihydrochloride of Compound (1) X = Br, 2-(S)-1-(4-bromoisoquinoline-5-sulfonyl)-2-methylhomopiperazine] | – |
